Paper PMC12410356 (International Journal for Parasitology: Drugs and Drug …, 2025)

tested on: E. multilocularis metacestode vesicles; assay: Metacestode vesicle viability assay (ATP, CellTiter-Glo); format: cell-based, Echinococcus multilocularis; conditions: 10 µM
Description: Viability was assessed after 12 days using the same metacestode vesicles as for the PGI release assay. Triton X-100 was added to each well to a final concentration of 0.1 %. Subsequently the metacestode vesicles were broken mechanically and 50 μL of the supernatant was mixed with 50 μL of CellTiter-Glo® buffer (Promega, Dübendorf, Switzerland). Measurements were performed on a HIDEX Sense microplate reader.

SMILES	Viability d12 (relative viability) [%]
CC1CCc2c(N3CCC(O)CC3)c(F)cc3c(=O)c(C(=O)O)cn1c23 (stereo not shown) [MMV637659]	137.188
CC#C[C@]1(O)CC[C@H]2[C@@H]3CCC4=CC(=O)CCC4=C3[C@@H](c3ccc(N(C)C)cc3)C[C@@]21C [MMV003297]	92.6641
CN(C)CCCOc1ccc(-c2ccc3ncc4c(c3c2)n(C2CCOCC2)c(=O)n4C)cn1 [MMV1580483]	49.6824

same assay, conditions: Echinococcus multilocularis, 288 h, overview screen, 10 μM, singlets, 12 days, relative to DMSO control; read-out: Viability d12 (relative viability)

SMILES	viability at 10 µM [%]
CC(=O)Oc1ccccc1C(=O)Nc1ncc([N+](=O)[O-])s1 [nitazoxanide, reference compound]	38.4

same assay, conditions: confirmation screen, 10 μM, triplicates, mean, 12 days

SMILES	Viability d12 (relative viability) [%]
Cc1nc2ccc(Oc3ccccc3)cc2c2c1CCN2CCc1ccccc1 [MMV1634399]	116.13
CCOCc1nc2c(N)nc3ccccc3c2n1CC(C)(C)O [MMV690547]	159.08
O=C(c1ccc(F)cc1)N1CCN2C(=O)c3ccccc3C12c1ccccc1 (stereo not shown) [MMV1165877]	130.42
CC1CN(c2ncnc3c2c(-c2ccccc2)cn3-c2ccc(F)cc2)CC(C)O1 (stereo not shown) [MMV093250]	29.29

same assay, conditions: overview screen, 10 μM, singlets, 12 days, relative to DMSO control

SMILES	Viability d12 (relative viability) [%]
O=C(Nc1ccc(F)cc1)c1nn(-c2ccccc2)c(=O)cc1Cl [MMV1578555]	71.8821
CC(C)(C)c1cc(CCC(=O)N2CCC2)cc(C(C)(C)C)c1O [MMV1229204]	39.6611
Cc1nc2ccc(Oc3ccccc3)cc2c2c1CCN2CCc1ccccc1 [MMV1634399]	23.583
O=c1ccc2ncc(=O)n3c2n1CC3CN1CCC(NCc2cc3c(cn2)OCCC3)CC1 (stereo not shown) [MMV1578568]	53.1876
CC(C)(C)NC(=O)[C@@H]1CN(Cc2cnc3occc3c2)CCN1C[C@@H](O)C[C@@H](Cc1ccccc1)C(=O)N[C@H]1c2ccccc2C[C@H]1O [MMV1782353]	92.6641
CCCC(=O)OCCc1ccccc1 [MMV1578899]	64.2092
CCOCc1nc2c(N)nc3ccccc3c2n1CC(C)(C)O [MMV690547]	9.628
Cc1ccn2c(C(=O)NCc3ccccc3)c(C)nc2c1 [MMV1579847]	87.8278
Nc1nc(Nc2ccc3nc(-c4ccc(F)cc4)cc(N)c3c2)cc(-c2ccccc2)n1 [MMV1593541]	23.9637
COc1ccc(SC(=O)N[C@H](CCC(=O)O)C(=O)O)cc1 [MMV1580846]	126.077
COc1ccc2cc3[n+](cc2c1OCCN(CCn1cncn1)Cc1ccc(F)cc1F)CCc1cc2c(cc1-3)OCO2 [MMV1593540]	37.1562
CCCNc1ccc(S(=O)(=O)Nc2cc(C)on2)cc1 [MMV1782216]	105.791
Cc1cc(NS(=O)(=O)c2ccc(-c3ccc(F)cc3F)cc2)no1 [MMV1782217]	58.3644
O=C(c1ccc(F)cc1)N1CCN2C(=O)c3ccccc3C12c1ccccc1 (stereo not shown) [MMV1165877]	23.1723
CC1CN(c2ncnc3c2c(-c2ccccc2)cn3-c2ccc(F)cc2)CC(C)O1 (stereo not shown) [MMV093250]	6.513

same assay, conditions: overview screen, 10 μM, twelve days, cut-off viability ≤30 %

SMILES	effect on metacestode vesicle viability (in words)
CC(=O)Oc1ccccc1C(=O)Nc1ncc([N+](=O)[O-])s1 [nitazoxanide, reference compound]	did not meet the threshold in the metacestode viability assay

same assay, conditions: overview screen, 10 μM, twelve days, cut-off viability ≤30 %; listed as MMV688991

SMILES	effect on metacestode vesicle viability (in words)
CC(=O)Oc1ccccc1C(=O)Nc1ncc([N+](=O)[O-])s1 [nitazoxanide, reference compound]	did not reduce the metacestode vesicle viability

tested on: E. multilocularis metacestode vesicles; assay: Phosphoglucose isomerase (PGI) release assay (damage-marker release) on metacestode vesicles; format: cell-based, Echinococcus multilocularis; conditions: confirmation screen, 10 μM, triplicates, mean, 5 days

SMILES	PGI d5 (relative PGI release) [%]
Cc1nc2ccc(Oc3ccccc3)cc2c2c1CCN2CCc1ccccc1 [MMV1634399]	0.85
CCOCc1nc2c(N)nc3ccccc3c2n1CC(C)(C)O [MMV690547]	0.18
O=C(c1ccc(F)cc1)N1CCN2C(=O)c3ccccc3C12c1ccccc1 (stereo not shown) [MMV1165877]	0.55
CC1CN(c2ncnc3c2c(-c2ccccc2)cn3-c2ccc(F)cc2)CC(C)O1 (stereo not shown) [MMV093250]	0.08

same assay, conditions: confirmation screen, 10 μM, triplicates, mean, 12 days

SMILES	PGI d12 (relative PGI release) [%]
Cc1nc2ccc(Oc3ccccc3)cc2c2c1CCN2CCc1ccccc1 [MMV1634399]	15.15
CCOCc1nc2c(N)nc3ccccc3c2n1CC(C)(C)O [MMV690547]	0.96
O=C(c1ccc(F)cc1)N1CCN2C(=O)c3ccccc3C12c1ccccc1 (stereo not shown) [MMV1165877]	0.41
CC1CN(c2ncnc3c2c(-c2ccccc2)cn3-c2ccc(F)cc2)CC(C)O1 (stereo not shown) [MMV093250]	-0.45

same assay, conditions: overview screen, 10 μM, singlets, 5 days, relative to 0.1 % Triton X-100, DMSO subtracted

SMILES	PGI d5 (relative PGI release) [%]
O=C(Nc1ccc(F)cc1)c1nn(-c2ccccc2)c(=O)cc1Cl [MMV1578555]	4.414
CC(C)(C)c1cc(CCC(=O)N2CCC2)cc(C(C)(C)C)c1O [MMV1229204]	-1.987
Cc1nc2ccc(Oc3ccccc3)cc2c2c1CCN2CCc1ccccc1 [MMV1634399]	25.5463
O=c1ccc2ncc(=O)n3c2n1CC3CN1CCC(NCc2cc3c(cn2)OCCC3)CC1 (stereo not shown) [MMV1578568]	-2.295
CC1CCc2c(N3CCC(O)CC3)c(F)cc3c(=O)c(C(=O)O)cn1c23 (stereo not shown) [MMV637659]	-2.748
CC(C)(C)NC(=O)[C@@H]1CN(Cc2cnc3occc3c2)CCN1C[C@@H](O)C[C@@H](Cc1ccccc1)C(=O)N[C@H]1c2ccccc2C[C@H]1O [MMV1782353]	0.2673
CCCC(=O)OCCc1ccccc1 [MMV1578899]	-0.4977
CCOCc1nc2c(N)nc3ccccc3c2n1CC(C)(C)O [MMV690547]	0.01909
Cc1ccn2c(C(=O)NCc3ccccc3)c(C)nc2c1 [MMV1579847]	-1.164
Nc1nc(Nc2ccc3nc(-c4ccc(F)cc4)cc(N)c3c2)cc(-c2ccccc2)n1 [MMV1593541]	4.554
COc1ccc(SC(=O)N[C@H](CCC(=O)O)C(=O)O)cc1 [MMV1580846]	-0.9041
CC(=O)Oc1ccccc1C(=O)Nc1ncc([N+](=O)[O-])s1 [nitazoxanide, reference compound]	37.9028
COc1ccc2cc3[n+](cc2c1OCCN(CCn1cncn1)Cc1ccc(F)cc1F)CCc1cc2c(cc1-3)OCO2 [MMV1593540]	1.275
CCCNc1ccc(S(=O)(=O)Nc2cc(C)on2)cc1 [MMV1782216]	-2.087
CC#C[C@]1(O)CC[C@H]2[C@@H]3CCC4=CC(=O)CCC4=C3[C@@H](c3ccc(N(C)C)cc3)C[C@@]21C [MMV003297]	-0.9731
Cc1cc(NS(=O)(=O)c2ccc(-c3ccc(F)cc3F)cc2)no1 [MMV1782217]	-2.099
O=C(c1ccc(F)cc1)N1CCN2C(=O)c3ccccc3C12c1ccccc1 (stereo not shown) [MMV1165877]	6.429
CC1CN(c2ncnc3c2c(-c2ccccc2)cn3-c2ccc(F)cc2)CC(C)O1 (stereo not shown) [MMV093250]	0.6968
CN(C)CCCOc1ccc(-c2ccc3ncc4c(c3c2)n(C2CCOCC2)c(=O)n4C)cn1 [MMV1580483]	-0.0428

same assay, conditions: overview screen, 10 μM, singlets, 12 days, relative to 0.1 % Triton X-100, DMSO subtracted

SMILES	PGI d12 (relative PGI release) [%]
O=C(Nc1ccc(F)cc1)c1nn(-c2ccccc2)c(=O)cc1Cl [MMV1578555]	31.7823
CC(C)(C)c1cc(CCC(=O)N2CCC2)cc(C(C)(C)C)c1O [MMV1229204]	-10.8726
Cc1nc2ccc(Oc3ccccc3)cc2c2c1CCN2CCc1ccccc1 [MMV1634399]	44.1623
O=c1ccc2ncc(=O)n3c2n1CC3CN1CCC(NCc2cc3c(cn2)OCCC3)CC1 (stereo not shown) [MMV1578568]	-8.489
CC1CCc2c(N3CCC(O)CC3)c(F)cc3c(=O)c(C(=O)O)cn1c23 (stereo not shown) [MMV637659]	-5.473
CC(C)(C)NC(=O)[C@@H]1CN(Cc2cnc3occc3c2)CCN1C[C@@H](O)C[C@@H](Cc1ccccc1)C(=O)N[C@H]1c2ccccc2C[C@H]1O [MMV1782353]	-0.3369
CCCC(=O)OCCc1ccccc1 [MMV1578899]	-12.5447
CCOCc1nc2c(N)nc3ccccc3c2n1CC(C)(C)O [MMV690547]	53.3537
Cc1ccn2c(C(=O)NCc3ccccc3)c(C)nc2c1 [MMV1579847]	-2.526
Nc1nc(Nc2ccc3nc(-c4ccc(F)cc4)cc(N)c3c2)cc(-c2ccccc2)n1 [MMV1593541]	-2.81
COc1ccc(SC(=O)N[C@H](CCC(=O)O)C(=O)O)cc1 [MMV1580846]	-2.09
CC(=O)Oc1ccccc1C(=O)Nc1ncc([N+](=O)[O-])s1 [nitazoxanide, reference compound]	44.5196
COc1ccc2cc3[n+](cc2c1OCCN(CCn1cncn1)Cc1ccc(F)cc1F)CCc1cc2c(cc1-3)OCO2 [MMV1593540]	36.6613
CCCNc1ccc(S(=O)(=O)Nc2cc(C)on2)cc1 [MMV1782216]	-24.1037
CC#C[C@]1(O)CC[C@H]2[C@@H]3CCC4=CC(=O)CCC4=C3[C@@H](c3ccc(N(C)C)cc3)C[C@@]21C [MMV003297]	-0.6398
Cc1cc(NS(=O)(=O)c2ccc(-c3ccc(F)cc3F)cc2)no1 [MMV1782217]	-26.6121
O=C(c1ccc(F)cc1)N1CCN2C(=O)c3ccccc3C12c1ccccc1 (stereo not shown) [MMV1165877]	52.7291
CC1CN(c2ncnc3c2c(-c2ccccc2)cn3-c2ccc(F)cc2)CC(C)O1 (stereo not shown) [MMV093250]	49.8105
CN(C)CCCOc1ccc(-c2ccc3ncc4c(c3c2)n(C2CCOCC2)c(=O)n4C)cn1 [MMV1580483]	2.3899

same assay, conditions: overview screen, 10 μM, twelve days, cut-off PGI release ≥20 %

SMILES	activity in the PGI release assay (in words)
CC(=O)Oc1ccccc1C(=O)Nc1ncc([N+](=O)[O-])s1 [nitazoxanide, reference compound]	showed activity in the PGI release assay

same assay, conditions: overview screen, 10 μM, twelve days, cut-off PGI release ≥20 %; listed as MMV688991

SMILES	activity in the PGI release assay (in words)
CC(=O)Oc1ccccc1C(=O)Nc1ncc([N+](=O)[O-])s1 [nitazoxanide, reference compound]	active in the PGI assay after twelve days
